Experimental data: patent publication US20240246905A1 (University of Leicester, priority 2021, published 2024)
Converted amounts (≈) assume the structure as drawn. Read-outs that look alike come from different tables or passages of the source.

Experiments:
MSSA 476 [1] = assay: MIC, broth micro-dilution; type: cell-based, Staphylococcus aureus
Method: (§1) E. coli DH5α, P. aeruginosa PA01 and the 53 S. aureus strains were recovered from frozen (−80° C.) glycerol (15% v/v) stocks on Lysogeny agar (LA)—Gram negative and trypticase soy agar (TSA)—plates at 37° C. for 24 hours. Single colonies were placed in either 3 mL Lysogeny broth (LB)—Gram negative or trypticase soy broth (TSB)—Gram positive and incubated at 37° C., 250 rpm for 18 hours.
(§2) Antibiotic MIC's were determined by a broth micro-dilution method according to Clinical Standard Laboratory Institute (CSLI) Guidelines (2017). Briefly, 96-well microplates, each containing 195 μL of the 1:2 dilution antibiotic in TSB, were inoculated with 5 μL of overnight cultured bacteria, diluted to give a starting bacterial concentration of 5×10^5 CFU/mL. The optical density of each well inoculated was recorded every 12 minutes over an 18 hour period at 37° C. The data from this was plotted in OriginPro8 (OriginLab) and sigmoidal curves fitted using the dose response function. Fitted values for each curve were used to calculate the MIC.

MRSA 252 [2] = assay: MIC, broth micro-dilution; type: cell-based, Staphylococcus aureus; conditions: Staphylococcus aureus, read-out: MIC
Method: as §1, §2

[3] = test system: Staphylococcus aureus 15981; assay: Disc diffusion (Kirby-Bauer), zone of inhibition; type: cell-based; conditions: Staphylococcus aureus 15981, 500 μg/mL, '/' = no zone; for zone of inhibition at 500 µg/mL: read-out: Zone of inhibition
Method: as §1
(§3) The antibiotic activity was determined using a Kirby-Bauer method according to Clinical Standard Laboratory Institute (CSLI) Guidelines (2017). Briefly, 180 μL of a 1 in 200 dilution (in LB or TSB) of overnight cultures of selected Gram negative and Gram positive bacteria were applied to an agar plate containing the solid growth medium, Mueller-Hinton agar (MHA). Sterile discs, inoculated with 50 μL of antibiotic, were first added to the agar plate before the plates were incubated for 24 hours at 37° C. Following incubation, the zone of inhibition (if it existed) was recorded.

MSSA 476 [4] = assay: Disc diffusion (Kirby-Bauer), zone of inhibition; type: cell-based, Staphylococcus aureus; conditions: 500 μg/mL, '/' = no zone; for zone of inhibition at 500 µg/mL: Staphylococcus aureus, read-out: Zone of inhibition
Method: as §1, §3

MRSA 252 [5] = assay: Disc diffusion (Kirby-Bauer), zone of inhibition; type: cell-based, Staphylococcus aureus; conditions: Staphylococcus aureus, 500 μg/mL, '/' = no zone, read-out: Zone of inhibition
Method: as §1, §3

Escherichia coli DH5α = assay: Disc diffusion (Kirby-Bauer), zone of inhibition; type: cell-based; conditions: Escherichia coli DH5α; 500 μg/mL; '/' = no zone; read-out: Zone of inhibition
Method: as §1, §3

[6] = test system: C. neoformans H99; ATCC 208821; assay: Anti-fungal MIC (CO-ADD); type: cell-based; conditions: Cryptococcus neoformans, ATCC208821, read-out: MIC
Method: (§4) Fungal strains were cultured for 3 days on Yeast Extract-Peptone Dextrose (YPD) agar at 30° C. A yeast suspension of 1×10^6 to 5×10^6 CFU/mL (as determined by OD530) was prepared from five colonies. […] All plates were covered and incubated at 35° C. for 36 hours without shaking. […] The absorbance was measured using a Biotek Multiflo Synergy HTX plate reader. In both cases, the percentage of growth inhibition was calculated for each well, using the negative control (media only) and positive control (fungi without inhibitors) on the same plate. […] Due to a higher variance in growth and inhibition, a lower threshold was applied to the data for C. neoformans. In addition, the maximal percentage of growth inhibition is reported as DMax, indicating any compounds with marginal activity.

C. tropicalis ATCC 750 = assay: Anti-fungal MIC (CO-ADD); type: cell-based; conditions: Candida tropicalis, ATCC750, read-out: MIC
Method: as §4

C. tropicalis ATCC 450 = assay: Anti-fungal MIC (CO-ADD); type: cell-based; conditions: Candida tropicalis, ATCC450, read-out: MIC
Method: as §4

C. albicans ATCC 90028 = assay: Anti-fungal MIC (CO-ADD); type: cell-based; conditions: Candida albicans, ATCC90028, read-out: MIC
Method: as §4

C. glabrata ATCC 90030 = assay: Anti-fungal MIC (CO-ADD); type: cell-based; conditions: Nakaseomyces glabratus, ATCC90030, read-out: MIC
Method: as §4

[7] = test system: C. deuterogattii ATCC 32609; assay: Anti-fungal MIC (CO-ADD); type: cell-based; conditions: read-out: MIC
Method: as §4

[8] = test system: Pseudomonas aeruginosa PA01; assay: Disc diffusion (Kirby-Bauer), zone of inhibition; type: cell-based; conditions: 500 μg/mL, '/' = no zone
Method: as §1, §3

[9] = test system: MRSA 252, MSSA 476, S. aureus 15981, P. aeruginosa PA01 and E. coli DH5α; assay: Disc diffusion primary screening, five strains (statements in words); type: cell-based; conditions: 500 μg/mL
Method: As such, the minimum inhibition concentration (MICs) of biologically active compounds were further assessed using the broth dilution method against the S. aureus strains; MRSA 252 and MSSA 476 (Table 1). The results of both assays enabled key structural elements and functional groups required for the compounds to retain their antibiotic activity to be identified.
as §3

[10] = Staphylococcus aureus, MSSA, read-out: MIC

Row | Structure (SMILES) | MIC (MSSA 476 [1]; [10]) [µg/mL] | MIC (MRSA 252 [2]) [µg/mL] | zone of inhibition at 500 µg/mL [3] [mm] | zone of inhibition at 500 µg/mL (MSSA 476 [4]) [mm] | zone of inhibition at 500 µg/mL (MRSA 252 [5]) [mm] | other results
1 | [C-]#[N+]/C=C/c1ccc(NC(C)=O)cc1-c1ccccc1 [Compound 43, (E)-N-(6-(2-Isocyanovinyl)-(1,1-biphenyl)-3-yl)acetamide] | 26 (≈ 99.1 µM) | 32 (≈ 122 µM) | 18 | 18 | 22 | 
2 | [C-]#[N+]C=Cc1cc(Br)c(O)c(Br)c1 [Compound 17, 2,6-Dibromo-4-(2-isocyanovinyl)phenol] | 176 (≈ 581 µM) | 157 (≈ 518 µM) | 16 | 18 | 18 | 
3 | [C-]#[N+]C=Cc1cc(OC)ccc1OC (mixture of isomers) [Compound 18, (E/Z)-2-(Isocyanovinyl)-1,4-dimethoxybenzene] | 210 | 117 | 20 | 26 | 14 | 
4 | [C-]#[N+]C=Cc1cccc(O)c1 [Compound 10, 3-(2-Isocyanovinyl)phenol] | 300 (≈ 2070 µM) | 137 (≈ 944 µM) | 18 | 16 | 20 | 
5 | [C-]#[N+]C=C(C)c1ccc(NS(C)(=O)=O)cc1 [Compound 24, N-(4-(1-Isocyanoprop-1-en-2-yl)phenyl)methanesulfonamie] | 291 (≈ 1230 µM) | 152 (≈ 643 µM) | 18 | 22 | 16 | zone of inhibition at 500 µg/mL (Escherichia coli DH5α): 14 mm
6 | [C-]#[N+]C=Cc1ccc(O)cc1Br [Compound 15, 3-Bromo-4-(2-isocyanovinyl)phenol] | 200 (≈ 893 µM) | 185 (≈ 826 µM) | 24 | 22 | 20 | MIC [6]: 8 µg/mL; MIC (C. tropicalis ATCC 750): 16 µg/mL; MIC (C. tropicalis ATCC 450): 4 µg/mL; MIC (C. albicans ATCC 90028): 8 µg/mL; MIC (C. glabrata ATCC 90030): 32 µg/mL; MIC [7]: 4 µg/mL
7 | [C-]#[N+]C=Cc1ccc(O)c(O)c1 [Compound 16, 4-(2-Isocyanovinyl)benzene-1,2-diol] | 400 (≈ 2480 µM) | 116 (≈ 720 µM) | 24 | 22 | 22 | zone of inhibition at 500 µg/mL [8]: 18 mm
8 | [C-]#[N+]/C=C/c1ccc(NC(C)=O)cc1/C=C/c1ccncc1 [Compound 44, N-(4-((E)-2-Isocyanovinyl)-3-((E)-2-(pyridin-4-yl)vinyl)phenyl)acetamide] | 46 (≈ 159 µM) | 35 (≈ 121 µM) | 30 | 28 | 28 | antibiotic activity in disc diffusion assays (in words) [9]: antibiotic activity against four of the strains; zone of inhibition at 500 µg/mL [8]: 26 mm
9 | [C-]#[N+]C=Cc1c[nH]c2cccc(Br)c12 [Compound 31, 4-Bromo-3-(2-isocyanovinyl)-1H-indole] |  |  |  |  |  | MIC (MSSA 476 [1]): 361 µg/mL (≈ 1460 µM); Zone of inhibition [3]: 12 mm; Zone of inhibition (MSSA 476 [4]): 12 mm
